These results are taken from ChEMBL document CHEMBL1201862, “PubChem BioAssay data set” (2004).

SMILES strings stand for the structures. Activity calls are given as the source filed them.

Assay [1] has as its target T1, Heat shock factor protein 1 (Mus musculus, UniProt P38532).
T1 sequence (P38532 whole entry): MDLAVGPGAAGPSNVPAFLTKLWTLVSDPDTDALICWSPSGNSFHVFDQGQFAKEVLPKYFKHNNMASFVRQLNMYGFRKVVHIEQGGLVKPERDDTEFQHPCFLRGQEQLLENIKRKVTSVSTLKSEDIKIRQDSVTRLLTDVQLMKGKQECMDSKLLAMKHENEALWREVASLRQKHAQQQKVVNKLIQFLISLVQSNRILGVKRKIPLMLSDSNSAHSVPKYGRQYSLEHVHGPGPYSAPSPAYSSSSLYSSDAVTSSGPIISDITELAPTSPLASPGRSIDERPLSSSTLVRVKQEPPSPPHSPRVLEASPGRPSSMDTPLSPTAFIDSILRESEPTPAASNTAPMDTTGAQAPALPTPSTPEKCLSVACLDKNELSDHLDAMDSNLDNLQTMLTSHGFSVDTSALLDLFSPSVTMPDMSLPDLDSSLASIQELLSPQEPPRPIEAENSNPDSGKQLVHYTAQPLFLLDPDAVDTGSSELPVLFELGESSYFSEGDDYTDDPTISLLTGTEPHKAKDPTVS
The assay can be described thus: inhibition of MG132-induced HSE-luciferase signal, confirmation, cell-based, NIH3T3, luminescence, dose retest (AID 2382).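 Further: NIH3T3 fibroblasts with HSF1-driven luciferase reporter stressed by proteasome inhibitor MG132; luminescence from HSF1-driven luciferase expression after 8 hours of MG132 stress.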 The assay is classed as functional.

Assay [2] has as its system Jurkat. The assay can be described thus: antigen receptor-induced NF-kB inhibitors, dose response, Jurkat, luciferase reporter, luminescence, B- and T-cell (AID 489004).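 Further: NF-kB luciferase reporter Jurkat cells stimulated with PMA plus ionomycin.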 Type of assay: functional, cell-based. The note with it: Homo sapiens.
A short description of assay [3]: cytotoxicity in HEK-293T NF-kB-Luc cells, dose response, cytotoxicity control for B/T-cell NF-kB inhibitor project, cell-based, uHTS hits (AID 489019).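 Further: IC50 reflects cytotoxicity as loss of cell viability.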 The assay is classed as functional.
The target of assay [4] is T2, Microphthalmia-associated transcription factor (Homo sapiens, UniProt O75030).
T2 sequence (O75030 whole entry): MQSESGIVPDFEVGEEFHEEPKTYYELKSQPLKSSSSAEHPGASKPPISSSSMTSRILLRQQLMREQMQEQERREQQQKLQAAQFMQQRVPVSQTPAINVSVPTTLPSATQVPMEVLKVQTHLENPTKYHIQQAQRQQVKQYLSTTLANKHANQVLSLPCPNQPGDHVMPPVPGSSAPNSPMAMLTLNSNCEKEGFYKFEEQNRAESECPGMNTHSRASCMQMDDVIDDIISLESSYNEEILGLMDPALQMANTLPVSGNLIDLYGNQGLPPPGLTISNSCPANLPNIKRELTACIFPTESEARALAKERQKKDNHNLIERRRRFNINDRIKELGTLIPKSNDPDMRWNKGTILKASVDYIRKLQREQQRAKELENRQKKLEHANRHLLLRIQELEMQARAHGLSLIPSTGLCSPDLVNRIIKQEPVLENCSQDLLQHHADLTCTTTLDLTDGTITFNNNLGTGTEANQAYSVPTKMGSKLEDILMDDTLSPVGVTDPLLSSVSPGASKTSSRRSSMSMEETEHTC
The assay can be described thus: TRPM1 promoter luciferase signal decrease, dose response, MITF inhibitor project, cell-based, SK-MEL-5, cherry-picked, set 3 (AID 493073).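 Further: SK-MEL-5 melanoma cells with luciferase driven by the MITF target TRPM1 promoter.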 Type of assay: functional.

The subject of assay [5] is A-375. The assay can be described thus: MITF: Counter assay: A375 proliferation Measured in Cell-Based System Using Plate Reader - 2084-03_Inhibitor_Dose_DryPowder_Activity. [Related pubchem assays (depositor defined):AID488944]. The settings on record: Homo sapiens. The assay is classed as functional.
Assay [6] concerns A-375. As to the kind of experiment: A375 melanoma cell viability reduction, dose response, counter-screen for MITF modulator project, cherry-pick samples, set 2 (AID 540335). The assay is classed as functional, cell-based. The note with it: Homo sapiens.
Assay [7] addresses Paired box protein Pax-8 (Homo sapiens, UniProt Q06710). The assay can be described thus: inhibitors of PAX8-driven TPO luciferase reporter, dose response, RMG-I cells, cherry-pick (AID 687027).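 Further: luciferase reporter driven by Pax8 target thyroperoxidase promoter measured by SteadyGlo luminescence.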 The assay is classed as functional, cell-based.
Assay [8] in a line: PAX2 cell-based inhibition, dose response, selectivity assay for PAX8 inhibitor project, plate reader, dry powder samples (AID 743048).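 Further: HEK293 cells carrying a WT1 promoter luciferase reporter driven by expressed Pax2; potency is for inhibition of Pax2 driven reporter signal.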 Type of assay: functional.
Assay [9] can be described thus: cytotoxicity in COV362 ovarian cancer cells, dose response, cytotoxicity control for PAX8 inhibitor project, cell-based, plate reader, dry powder, SA12 (AID 743144). The assay is classed as functional.
Assay [10] is described as follows: PAX5 activity inhibitors, dose response, selectivity assay for PAX8 inhibitor project, cell-based, plate reader, dry powder samples (AID 743047).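 Further: HEK293 cells carrying a Pax5 driven CD19 promoter luciferase reporter; potency of inhibitors that lower reporter luminescence.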 Type of assay: functional.
A short description of assay [11]: HepG2 cell cytotoxicity, dose response, cytotoxicity control, plate reader, cherry-pick, antagonist series (AID 743416). The assay is classed as functional, cell-based.
The nature of assay [12]: IGROV1 ovarian cancer cell cytotoxicity, dose response, PAX8 inhibitor project, plate reader, dry powder samples (AID 743043). Type of assay: functional, cell-based. The note with it: IGROV-1.
Assay [13] is described as follows: LGR2 antagonists, dose response, cell-based, HEK293, CRE-luciferase reporter, cherry pick, set 2 (AID 743343).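 Further: transfected cells were stimulated with diluted bursicon conditioned medium after compound addition.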 Type of assay: functional.
The nature of assay [14]: cytotoxicity in COV434 cells, dose response, cytotoxicity control for PAX8 inhibitor project, cell-based, plate reader, dry powder, SA7 (AID 743145). The assay is classed as functional.
Assay [15] is described as follows: cytotoxicity in OV-90 ovarian cancer cells, dose response, PAX8 inhibitor project, cell-based, plate reader, dry powder, SA8 (AID 743149). Type of assay: functional.
Assay [16] in a line: MC4R antagonists, dose response, counter-screen for LGR2 antagonist project, cell-based, plate reader, cherry pick (AID 743444).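 Further: transfected HEK 293 cells stimulated with alpha-MSH peptide; potency of inhibitors of the alpha-MSH evoked signal.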 The assay is classed as functional.
A short description of assay [17]: cytotoxicity dependent on PAX8, dose response, cell-based, plate reader, dry powder (AID 743049). The assay is classed as functional.
Assay [18] in a line: HEK293 cell cytotoxicity, dose response, cytotoxicity control, plate reader, cherry-picked samples (AID 743446). Type of assay: functional, cell-based.
The target in assay [19] is sn-1-specific diacylglycerol lipase ABHD11 (Mus musculus, UniProt Q8K4F5). As to the kind of experiment: Late stage assay provider results from the probe development effort to identify inhibitors of LYPLA1 and LYPLA2: Gel-based Activity-Based Protein Profiling (ABPP) IC50 for off-target ABHD11. [Related pubchem assays (depositor defined):AID2174, AID2202, AID2203, AID2233, AID504482, AID504498, AID504505, AID504507, AID504510, AID504520, AID504522, AID504892]. Type of assay: functional.
Sequence of sn-1-specific diacylglycerol lipase ABHD11 (Q8K4F5 whole entry): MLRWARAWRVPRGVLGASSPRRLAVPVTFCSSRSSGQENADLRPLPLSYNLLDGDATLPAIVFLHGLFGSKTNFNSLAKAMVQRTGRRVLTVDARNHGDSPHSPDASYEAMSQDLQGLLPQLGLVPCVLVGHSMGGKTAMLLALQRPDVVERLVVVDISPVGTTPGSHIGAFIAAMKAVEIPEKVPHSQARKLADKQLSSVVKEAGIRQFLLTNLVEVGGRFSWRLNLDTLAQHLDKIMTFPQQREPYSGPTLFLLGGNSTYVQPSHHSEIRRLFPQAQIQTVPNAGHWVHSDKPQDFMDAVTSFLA

Sequence of Paired box protein Pax-8 (Q06710 whole entry): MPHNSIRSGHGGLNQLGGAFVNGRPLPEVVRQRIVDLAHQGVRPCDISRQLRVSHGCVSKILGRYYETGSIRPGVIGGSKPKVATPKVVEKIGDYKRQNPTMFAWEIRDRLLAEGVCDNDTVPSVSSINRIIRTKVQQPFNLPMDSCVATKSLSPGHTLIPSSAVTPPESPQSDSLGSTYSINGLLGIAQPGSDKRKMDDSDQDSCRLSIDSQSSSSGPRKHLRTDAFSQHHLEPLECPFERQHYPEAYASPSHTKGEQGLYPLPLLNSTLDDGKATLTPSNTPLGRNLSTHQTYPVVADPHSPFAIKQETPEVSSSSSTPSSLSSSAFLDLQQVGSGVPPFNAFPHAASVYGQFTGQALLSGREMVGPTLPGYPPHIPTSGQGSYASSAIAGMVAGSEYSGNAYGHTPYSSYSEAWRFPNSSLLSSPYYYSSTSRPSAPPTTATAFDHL

As to `O=C(/C=C/c1ccccc1)Nc1cccc(C(=O)O)c1`, in [1], the EC50 was 1.73 µM (active). In addition, the IC50 in assay [2] is 1.4 µM (active); in [3], > 80 µM (inactive). For the same compound, the AC50 is 1.52 µM (active) in [4]; > 35 µM (active) in assay [5]; > 35 µM (active) in assay [6]; 4.06 µM (active) in [7]; 2.07 µM (active) in assay [8]; 77.2 µM (active) in [9]. Moreover, the AC50 is 2.67 µM (active) in assay [10]; > 52 µM (inactive) in [11]; 49 µM (active) in [12]; 0.833 µM (active) in [13]; > 100 µM (inactive) in assay [14]; > 100 µM (inactive) in assay [15]. Further, the concentration at half-maximal activity (AC50) in assay [16] was 0.592 µM (active); in assay [17], 32.2 µM (active); in assay [18] it was > 52 µM (inactive).

`CC(C)(C)C1CCN(C(=O)n2ncc(C(O)(c3ccccc3)c3ccccc3)n2)CC1`: in assay [19], the IC50 was 0.01 µM (active).
